Here are results for 24 compounds from US12612386B2, “Heteroaryl-triazole compounds as pesticides” (Bayer Aktiengesellschaft, priority 2020, dated 2026).

Holding throughout (assay type): in vivo
The test system of assay [1] is larvae of the banded cucumber beetle (Diabrotica balteata). Kind of assay: Diabrotica balteata spray test. The conditions noted are these: 168 h, 100 g/ha (=32 μg/well), after 7 days, read-out: efficacy (seedling growth). As for the experimental part: Diabrotica balteata—Spray Test
(§1) • Solvent: 78.0 parts by weight of acetone • 1.5 parts by weight of dimethylformamide • Emulsifier: alkylarylpolyglycol ether
(§2) To produce a suitable preparation of active compound, 1 part by weight of active compound is mixed with the stated amount of solvent, and the concentrate is diluted with water, containing an emulsifier concentration of 1000 ppm, to the desired concentration. Further test concentrations are prepared by dilution with emulsifier containing water.
Soaked wheat seeds (Triticum aestivum) are placed in a multiple well plate filled with agar and some water and are incubated for 1 day to germinate (5 seeds per well). The germinated wheat seeds are sprayed with a test solution containing the desired concentration of the active ingredient. Afterwards each unit is infected with 10-20 larvae of the banded cucumber beetle (Diabrotica balteata).
After 7 days efficacy in % is determined. 100% means all the seedlings have grown up like in the untreated, uninfected control; 0% means none of the seedlings have grown.

Assay [2] has as its system larvae of the southern green stink bug (Nezara viridula). Kind of assay: whole plant or invertebrate. The conditions noted are these: 96 h. As for the experimental part: Nezara viridula—Spray Test
as §1, §2
Barley plants (Hordeum vulgare) are sprayed with a test solution containing the desired concentration of the active ingredient and are infested with larvae of the southern green stink bug (Nezara viridula).
After 4 days mortality in % is determined. 100% means all the stink bugs have been killed; 0% means none of the stink bugs have been killed.

For assay [3], the system named is brown planthopper (Nilaparvata lugens). Briefly: Nilaparvata lugens spray test. Conditions: 96 h. As for the experimental part:
Nilaparvata lugens—Spray Test
as §1
(§3) To produce a suitable preparation of active compound, 1 part by weight of active compound is mixed with the stated amount of solvents and is diluted with water, containing an emulsifier concentration of 1000 ppm, to the desired concentration. Further test concentrations are prepared by dilution with emulsifier containing water.
Rice plants (Oryza sativa) are sprayed with a preparation of the active ingredient of the desired concentration and the plants are infested with the brown planthopper (Nilaparvata lugens).
After 4 days mortality in % is determined. 100% means all planthoppers have been killed and 0% means none of the planthoppers have been killed.

Assay [4] deals with fall armyworm larvae (Spodoptera frugiperda). Kind of assay: whole plant or invertebrate. The conditions noted are these: 168 h. As for the experimental part:
Spodoptera frugiperda—Spray Test
(§4) • Solvent: 78.0 parts by weight acetone • 1.5 parts by weight dimethylformamide • Emulsifier: alkylarylpolyglycol ether
as §3
Maize (Zea mays) leaf sections are sprayed with a preparation of the active ingredient of the desired concentration. Once dry, the leaf sections are infested with fall armyworm larvae (Spodoptera frugiperda).
After 7 days mortality in % is determined. 100% means all caterpillars have been killed and 0% means none of the caterpillars have been killed.
Spodoptera frugiperda—Spray Test (SPODFR)
After the specified period of time, mortality in % is determined. 100% means all caterpillars have been killed and 0% means none of the caterpillars have been killed.

For assay [5], the system named is green peach aphid (Myzus persicae). Kind of assay: Myzus persicae spray test (MYZUPE). The conditions noted are these: 120 h; for mortality at 100 g/ha: after 5 days. As for the experimental part: Myzus persicae—Spray Test
• Solvent: 78.0 parts by weight acetone • 1.5 parts by weight dimethylformamide • Emulsifier: alkylarylpoly glycol ether
as §3
Chinese cabbage (Brassica pekinensis) leaf disks infected with all instars of the green peach aphid (Myzus persicae), are sprayed with a preparation of the active ingredient of the desired concentration.
After 5 days mortality in % is determined. 100% means all aphids have been killed and 0% means none of the aphids have been killed.
Myzus persicae—Spray Test (MYZUPE)
as §4
After the specified period of time, mortality in % is determined. 100% means all aphids have been killed and 0% means none of the aphids have been killed.

A word on the mortality: it is the percentage killed. A high value points to a strong lethal effect. With `Cc1nc([C@H](C)NC(=O)c2cc(C(F)(F)F)cc(S(C)(=O)=O)c2)n(-c2cc(C#N)ncn2)n1` [I-23], the pest or weed control at 32 µg/disc, 100 g/ha in assay [1] turned out to be 100%. In addition, the mortality at 500 g/ha in assay [2] and in assay [3] was 100% each time.
As for `Cc1nc([C@H](C)NC(=O)c2cc(S(=O)(=O)C(F)(F)F)cc(S(=O)(=O)C(F)(F)F)c2)n(-c2cc(C#N)ncn2)n1` [I-29], in assay [1], the pest or weed control at 32 µg/disc, 100 g/ha is 100%. The mortality at 500 g/ha in assay [3] is 100%. This compound also returned a mortality at 100 g/ha in assay [4] of 100%.
On to `Cc1nc([C@H](C)NC(=O)c2cc(OC(F)(F)F)cc(S(C)(=O)=O)c2)n(-c2cc(C(N)=O)ncn2)n1` [I-32], for which the mortality at 100 g/ha in assay [5] came to 90%; in assay [2] it was 90%; in assay [4] it was 100%. The mortality at 500 g/ha in assay [2] amounted to 100%; in assay [3], 90%.
Consider `C[C@H](NC(=O)c1cccc(F)c1)c1ncnn1-c1cc(C(N)=O)ncn1` [I-44], for which the pest or weed control at 32 µg/disc, 100 g/ha in assay [1] worked out at 100%. The compound further showed a mortality at 100 g/ha in assay [2] of 100%. The mortality at 500 g/ha in assay [2] and in assay [3] was 100% each time.
As for `C[C@H](NC(=O)c1cc(Cl)cc(S(C)(=O)=O)c1)c1ncnn1-c1cc(C(N)=O)ncn1` [I-59], in assay [1], the pest or weed control at 32 µg/disc, 100 g/ha was found to be 100%. Also, in assay [5], the mortality at 100 g/ha came out at 90%. The mortality at 500 g/ha in assay [2] and in assay [3] was 100% each time.
Consider `CNC(=O)c1cc(-n2ncnc2[C@H](C)NC(=O)c2cc(Cl)cc(S(C)(=O)=O)c2)ncn1` [I-60], for which the pest or weed control at 32 µg/disc, 100 g/ha in assay [1] came out at 100%. The compound further gave a mortality at 100 g/ha in assay [5] of 90%. Moreover, the mortality at 500 g/ha in assay [2] and in assay [3] was 100% each time.
On to `Cc1nc([C@H](C)NC(=O)c2cc(Cl)cc(S(C)(=O)=O)c2)n(-c2cc(C(N)=O)ncn2)n1` [I-61], for which the mortality at 500 g/ha worked out at 100% in assay [2] and 90% in assay [3].
As to `Cc1nc([C@H](C)NC(=O)c2cc(Br)cc(Br)c2)n(-c2cc(C(N)=O)ncn2)n1` [I-71], in assay [1], the pest or weed control at 32 µg/disc, 100 g/ha worked out at 100%. The mortality at 100 g/ha was determined as 90% in assay [5] and 100% in assay [4]. The compound further had a mortality at 500 g/ha in assay [2] of 90%.
In the case of `C[C@H](NC(=O)c1cc(F)cc(C#N)c1)c1ncnn1-c1cc(C(N)=O)ncn1` [I-77], in assay [1], the pest or weed control at 32 µg/disc, 100 g/ha amounted to 100%. Moreover, the mortality at 100 g/ha in assay [5] was 100%. Besides, the mortality at 500 g/ha in assay [2] and in assay [3] was 100% each time.
As for `C[C@H](NC(=O)c1cc(Cl)cc(S(=O)(=O)C(F)(F)F)c1)c1ncnn1-c1cc(C(N)=O)ncn1` [I-84], the pest or weed control at 32 µg/disc, 100 g/ha in assay [1] was 100%. Moreover, the mortality at 100 g/ha in assay [5] turned out to be 90%; in assay [4], 100%. Moreover, the Emax at 4 g/ha in assay [5] (MYZUPE, 4 g ai/ha, 5 dat (Table 4), read-out: % Efficacy) came to 90%. Besides, the Emax at 20 g/ha was determined as 100% in assay [5] (MYZUPE, 20 g ai/ha, 5 dat (Table 4), read-out: % Efficacy) and 100% in assay [4] (SPODFR, 20 g ai/ha, 7 dat (Table 4), read-out: % Efficacy). The Emax at 100 g/ha in assay [5] (MYZUPE, 100 g ai/ha, 5 dat (Table 4), read-out: % Efficacy) is 90%; in assay [4] (SPODFR, 100 g ai/ha, 7 dat (Table 4), read-out: % Efficacy), 100%. The compound also gave a mortality at 500 g/ha in assay [2] of 100%.
Regarding `CNC(=O)c1cc(-n2nc(C)nc2[C@H](C)NC(=O)c2cc(Br)cc(OC(F)F)c2)ncn1` [I-88], the pest or weed control at 32 µg/disc, 100 g/ha in assay [1] was determined as 100%. Also, the mortality at 100 g/ha in assay [5] and in assay [4] was 100% each time. This compound also yielded a mortality at 500 g/ha in assay [2] of 100%.
Consider `CNC(=O)c1cc(-n2nc(C)nc2[C@H](C)NC(=O)c2cc(OC(F)F)cc(OC(F)F)c2)ncn1` [I-99], for which the pest or weed control at 32 µg/disc, 100 g/ha in assay [1] is 100%. For the same compound, the mortality at 100 g/ha in assay [5] came out at 90%; in assay [4] it was 100%. Besides, the mortality at 500 g/ha in assay [2] was 100%.
Turning to `CNC(=O)c1cc(-n2ncnc2[C@H](C)NC(=O)c2cccc(OC(F)(F)F)c2)ncn1` [I-110], in assay [1], the pest or weed control at 32 µg/disc, 100 g/ha turned out to be 100%. Also, the mortality at 100 g/ha was 90% in assay [5] and 100% in assay [4]. The compound also returned a mortality at 500 g/ha in assay [2] of 100%.
For the compound `CC(C)N(C)C(=O)c1nccc(-n2ncnc2[C@H](C)NC(=O)c2cc(OC(F)(F)F)cc(OC(F)(F)F)c2)n1` [I-115], the pest or weed control at 32 µg/disc, 100 g/ha in assay [1] was 80%. The values for the mortality at 100 g/ha in assay [5] and in assay [4] were 90% and 100%, respectively. In assay [3], this compound showed a mortality at 500 g/ha of 90%.
`CNC(=O)c1cc(-n2ncnc2[C@H](C)NC(=O)c2cc(Br)cc(OC(F)(F)C(F)F)c2)ncn1` [I-122]: the pest or weed control at 32 µg/disc, 100 g/ha in assay [1] turned out to be 100%. Besides, the mortality at 500 g/ha in assay [2] and in assay [3] was 100% each time. The mortality at 100 g/ha in assay [4] worked out at 100%.
As to `C[C@H](NC(=O)c1cc(Br)cc(C#N)c1)c1ncnn1-c1cc(C(N)=O)ncn1` [I-124], the pest or weed control at 32 µg/disc, 100 g/ha in assay [1] was found to be 100%. For the same compound, the mortality at 100 g/ha was determined as 90% in assay [5], 100% in assay [2] and 100% in assay [4]. The same compound gave a mortality at 500 g/ha in assay [2] of 100%.
In assay [2], `C[C@H](NC(=O)c1cc(C#N)cc(C#N)c1)c1ncnn1-c1cc(C(N)=O)ncn1` [I-126] gave a mortality at 100 g/ha of 100% and a mortality at 500 g/ha of 100%. This compound showed a mortality at 500 g/ha in assay [3] of 100%.
`Cc1nc([C@H](C)NC(=O)c2cc(C#N)cc(C#N)c2)n(-c2cc(C(N)=O)ncn2)n1` [I-128]: the pest or weed control at 32 µg/disc, 100 g/ha in assay [1] worked out at 100%. Moreover, in assay [2], the mortality at 100 g/ha stood at 100% and the mortality at 500 g/ha worked out at 100%. For the same compound, the mortality at 500 g/ha in assay [3] came out at 100%.
As to `Cc1nc([C@H](C)NC(=O)c2cc(C(F)(F)F)cc(C(F)(F)F)c2)n(-c2cc(C(=O)N(C)C)ncn2)n1` [I-130], in assay [1], the pest or weed control at 32 µg/disc, 100 g/ha came to 100%. For the same compound, the mortality at 500 g/ha in assay [2] and in assay [3] was 100% in each case. Besides, the mortality at 100 g/ha in assay [4] was 100%.
As to `C[C@H](NC(=O)c1cc(C(F)F)cc(C(F)F)c1)c1ncnn1-c1cc(C(N)=O)ncn1` [I-133], the pest or weed control at 32 µg/disc, 100 g/ha in assay [1] is 100%. Besides, the mortality at 100 g/ha in assay [5] and in assay [4] was 100% in each case. In assay [3], this compound yielded a mortality at 500 g/ha of 100%.
Take `CNC(=O)c1cc(-n2ncnc2[C@H](C)NC(=O)c2cc(C(F)F)cc(C(F)F)c2)ncn1` [I-134]: the pest or weed control at 32 µg/disc, 100 g/ha in assay [1] is 100%. Besides, the mortality at 100 g/ha is 90% in assay [5] and 100% in assay [4]. The compound further gave a mortality at 500 g/ha in assay [3] of 100%.
As to `C[C@H](NC(=O)c1cc(C(F)F)cc(C(F)F)c1)c1ncnn1-c1cc(C(=O)N(C)C)ncn1` [I-139], the pest or weed control at 32 µg/disc, 100 g/ha in assay [1] was 100%. For the same compound, the mortality at 100 g/ha in assay [5] was 100%. Moreover, the mortality at 500 g/ha in assay [2] and in assay [3] was 100% in each case.
With `C[C@H](NC(=O)c1cc(OC(F)(F)F)cc(S(C)(=O)=O)c1)c1nc(C2CC2)nn1-c1cc(C(=O)N(C)C)ncn1` [I-154], the mortality at 100 g/ha in assay [5] came out at 90%; in assay [4] it was 100%. In addition, the mortality at 500 g/ha in assay [2] and in assay [3] was 100% each time.
As for `C[C@H](NC(=O)c1cc(I)cc(OC(F)F)c1)c1ncnn1-c1cc(C(N)=O)ncn1` [I-162], the pest or weed control at 32 µg/disc, 100 g/ha in assay [1] was found to be 100%. In addition, the mortality at 100 g/ha in assay [5] turned out to be 90%; in assay [4], 100%. In addition, in assay [2], the mortality at 500 g/ha was found to be 100%.
